Tests used:
sphingomyelinase = molecular target: T1, sphingomyelinase (Bacillus cereus, UniProt P11889); test: SAST Sphingomyelinase Activity Screening Test; type: biochemical; conditions: test band brightness divided by average of positive controls; above 1 enhancer, below 1 inhibitor; BODIPY FL C5-Sphingomyelin substrate, 30 minutes, 25° C., PBS pH=7.4
T1 construct: purchased Sigma Chemical, St. Louis, Mo; S7651
Method: Agents, such as botanical extracts and related compounds, for example, are tested for their ability to increase the activity of sphingomyelinase in a sphingomyelinase/sphingomyelin-containing system. An increase in the activity of sphingomyelinase results in an increase in the hydrolysis of sphingomyelin and an increased production of ceramide. The Sphingomyelinase Activity Screening Test to determine the efficacy of an agent is completed as follows:
Step 1: Preparation of Testing Solution Comprising Sphingomyelinase, Sphingomyelin, and Agent: Combine the following to prepare a 100 microliter test solution: (1) 10 microliters of agent (such as a botanical extract, for example) where the agent is an aqueous solution or oil (if the agent is a powder or solid, prepare 10 microliters of a 0.1 microgram/milliliter solution by dissolving the appropriate amount of powder or solid in Phosphate Buffered Saline, pH=7.4); (2) 10 microliters of a 0.1 microgram/milliliter sphingomyelinase (Catalogue No. S7651, Sigma Chemical, St. Louis, Mo. (or equivalent)) in Phosphate Buffered Saline, pH=7.4, solution; (3) 10 microliters of a 250 microgram/milliliter BODIPY FL C5-Sphingomyelin (Molecular Probes, Eugene, Oreg. (or equivalent)) in Phosphate Buffered Saline, pH=7.4, solution; and (4) 70 microliters of Phosphate Buffered Saline, pH=7.4.
Step 2: Preparation of Control Testing Solution Comprising Sphingomyelinase and Sphingomyelin: Combine the following to prepare a 100 microliter test solution: (1) 10 microliters of a 0.1 microgram/milliliter sphingomyelinase in Phosphate Buffered Saline, pH=7.4, solution; (2) 10 microliters of a 250 microgram/milliliter BODIPY FL C5-Sphingomyelin in Phosphate Buffered Saline, pH=7.4, solution; and (3) 80 microliters of Phosphate Buffered Saline, pH=7.4. […]

[1] = tested on: ceramidase (infant fecal extract); test: CAST Ceramidase Activity Screening Test; type: biochemical; conditions: relative to positive control, above 1 enhancer, below 1 inhibitor, C5 ceramide substrate, 18 hours, 25° C., PBS pH=7.4
Method: Agents, such as botanical extracts and related compounds, for example, are tested for their ability to decrease the activity of ceramidase in a ceramidase/ceramide system. A decrease in the activity of ceramidase results in an increase in the level of ceramides. The Ceramidase Activity Screening Test is completed as follows:
Step 1: Preparation of Testing Solution Comprising Ceramidase (Fecal Extract), Agent, and Ceramide: Combine the following to prepare a 100 microliter test solution: (1) 10 microliters of agent where the agent is an aqueous solution or oil (if the agent is a powder solid, prepare 10 microliters of a 0.1 microgram/milliliter solution by dissolving the appropriate amount of powder or solid in Phosphate Buffered Saline, pH=7.4); (2) 10 microliters of infant fecal extract in Phosphate Buffered Saline, pH=7.4 prepared by extracting 1 gram of infant feces in 9 mL of Phosphate Buffered Saline, pH=7.4, and vortexing the extraction for about 2 minutes followed by centrifugation to remove any solids; (3) 10 microliters of 250 microgram/milliliter C5 ceramide in Phosphate Buffered Saline, pH=7.4; and (4) 70 microliters of Phosphate Buffered Saline, pH=7.4.
Step 2: Preparation of Control Testing Solution Comprising Ceramidase and Ceramide: Combine the following to prepare a 100 microliter test solution: (1) 10 microliters of infant fecal extract in Phosphate Buffered Saline, pH=7.4; (2) 10 microliters of 250 microgram/milliliter BIODIPY FL C5 ceramide (Molecular Probes, Eugene, Wash.) in Phosphate Buffered Saline, pH=7.4; and (3) 80 microliters of Phosphate Buffered Saline, pH=7.4. […]
Step 3: Illuminate each plate with a 364 nanometer light source and take pictures with a suitable camera, such as a digital Kodak DC 40. The digital image is transferred as a TIFF file to the Alpha Innotech Flourchem Plate Imaging System and analyzed as described above with similar positive (substrate and ceramidase) and negative (substrate and no enzyme) controls. […]

T1 sequence (P11889 28-333): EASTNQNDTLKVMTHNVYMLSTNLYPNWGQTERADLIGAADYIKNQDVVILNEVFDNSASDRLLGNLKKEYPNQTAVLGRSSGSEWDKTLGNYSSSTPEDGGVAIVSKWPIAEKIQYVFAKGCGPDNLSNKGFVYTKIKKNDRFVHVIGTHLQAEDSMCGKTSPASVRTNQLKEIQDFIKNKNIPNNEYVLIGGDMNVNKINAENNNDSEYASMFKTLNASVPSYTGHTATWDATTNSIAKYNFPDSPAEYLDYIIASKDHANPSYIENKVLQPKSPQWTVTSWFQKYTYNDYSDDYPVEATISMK

`CC(=O)Oc1c(C)c(C)c2c(c1C)CC[C@@](C)(CCC[C@H](C)CCC[C@H](C)CCCC(C)C)O2` [D1-alpha-Tocophenyl Acetate] was tested, and the “Effect on Sphingomyelinase Activity” value (sphingomyelinase) was 0.6 Times Activity and the “Effect on Ceramidase Activity” value [1] was “≧1 Times Activity”.
For Potassium Laureth Phosphate, the “Effect on Sphingomyelinase Activity” value (sphingomyelinase) was 0.1 Times Activity and the “Effect on Ceramidase Activity” value [1] was “No Effect”.
“Sunflower Seedaminopropyl Morpholine Lactate” was tested, and the “Effect on Sphingomyelinase Activity” value (sphingomyelinase) was 0.1 Times Activity and the “Effect on Ceramidase Activity” value [1] was “No Effect”.
